Test results published in ChEMBL document CHEMBL3132825, “Preparation of phenylethylbenzamide derivatives as modulators of DNMT3 activity” (Medchemcomm, 2013).
Calls of active or inactive are those of the source. The calls are words filed in the database; no cut-off is given here.

What was measured:
[1] = target: DNA (cytosine-5)-methyltransferase 1 (Homo sapiens) (UniProt P26358); assay: Inhibition of human DNMT1 using [methyl-3H]SAM and biotinylated hemimethylated DNA duplex at 100 uM by [3H]methyl group incorporation assay
Chain of DNA (cytosine-5)-methyltransferase 1 (Homo sapiens) (P26358 whole entry, the tested form may be a part): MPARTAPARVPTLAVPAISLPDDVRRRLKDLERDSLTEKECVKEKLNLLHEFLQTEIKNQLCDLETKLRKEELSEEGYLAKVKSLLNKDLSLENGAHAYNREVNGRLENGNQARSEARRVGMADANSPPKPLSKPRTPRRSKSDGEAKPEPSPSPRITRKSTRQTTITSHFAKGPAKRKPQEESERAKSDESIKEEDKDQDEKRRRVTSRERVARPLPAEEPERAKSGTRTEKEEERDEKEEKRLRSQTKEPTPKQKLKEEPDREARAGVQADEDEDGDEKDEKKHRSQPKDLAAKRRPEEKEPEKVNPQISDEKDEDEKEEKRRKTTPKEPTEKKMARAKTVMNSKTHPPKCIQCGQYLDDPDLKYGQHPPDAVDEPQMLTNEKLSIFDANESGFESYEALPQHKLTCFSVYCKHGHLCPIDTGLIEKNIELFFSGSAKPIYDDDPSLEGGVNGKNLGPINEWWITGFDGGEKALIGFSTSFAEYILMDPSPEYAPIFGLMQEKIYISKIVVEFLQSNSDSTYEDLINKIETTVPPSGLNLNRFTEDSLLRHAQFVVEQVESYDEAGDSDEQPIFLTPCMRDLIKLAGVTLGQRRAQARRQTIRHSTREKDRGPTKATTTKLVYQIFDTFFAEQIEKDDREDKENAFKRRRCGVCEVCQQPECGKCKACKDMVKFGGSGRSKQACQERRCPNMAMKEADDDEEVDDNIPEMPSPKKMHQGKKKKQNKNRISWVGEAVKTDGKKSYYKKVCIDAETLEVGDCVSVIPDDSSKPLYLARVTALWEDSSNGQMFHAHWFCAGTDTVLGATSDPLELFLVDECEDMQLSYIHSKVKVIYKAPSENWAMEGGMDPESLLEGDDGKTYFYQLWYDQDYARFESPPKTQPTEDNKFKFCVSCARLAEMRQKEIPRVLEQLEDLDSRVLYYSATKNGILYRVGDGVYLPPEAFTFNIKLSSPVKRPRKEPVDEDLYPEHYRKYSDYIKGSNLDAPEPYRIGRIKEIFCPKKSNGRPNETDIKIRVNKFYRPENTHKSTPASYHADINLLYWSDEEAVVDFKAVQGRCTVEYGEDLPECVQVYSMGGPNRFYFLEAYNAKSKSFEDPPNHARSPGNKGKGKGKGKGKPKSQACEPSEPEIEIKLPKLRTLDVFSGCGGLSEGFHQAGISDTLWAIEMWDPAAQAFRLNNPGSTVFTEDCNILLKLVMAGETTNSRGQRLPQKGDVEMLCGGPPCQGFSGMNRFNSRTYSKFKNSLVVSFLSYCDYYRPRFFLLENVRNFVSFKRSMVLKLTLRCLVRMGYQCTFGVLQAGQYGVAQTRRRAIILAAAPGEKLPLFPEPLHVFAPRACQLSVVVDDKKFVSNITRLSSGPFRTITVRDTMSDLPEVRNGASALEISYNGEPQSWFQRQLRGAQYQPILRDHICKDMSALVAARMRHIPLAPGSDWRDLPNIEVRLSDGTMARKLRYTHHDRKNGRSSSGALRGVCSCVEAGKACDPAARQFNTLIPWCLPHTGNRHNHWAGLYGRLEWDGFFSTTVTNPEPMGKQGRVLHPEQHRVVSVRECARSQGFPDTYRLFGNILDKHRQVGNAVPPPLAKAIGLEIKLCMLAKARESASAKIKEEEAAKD

[2] = target: Histone-lysine N-methyltransferase, H3 lysine-79 specific (Homo sapiens) (UniProt Q8TEK3); assay: Inhibition of DOT1L (unknown origin) using [methyl-3H]SAM and biotinylated nucleosome PRC2 and H3K27Me3 activator peptide up to 80 uM by [3H]methyl group incorporation assay
Chain of Histone-lysine N-methyltransferase, H3 lysine-79 specific (Homo sapiens) (Q8TEK3 whole entry, looked up): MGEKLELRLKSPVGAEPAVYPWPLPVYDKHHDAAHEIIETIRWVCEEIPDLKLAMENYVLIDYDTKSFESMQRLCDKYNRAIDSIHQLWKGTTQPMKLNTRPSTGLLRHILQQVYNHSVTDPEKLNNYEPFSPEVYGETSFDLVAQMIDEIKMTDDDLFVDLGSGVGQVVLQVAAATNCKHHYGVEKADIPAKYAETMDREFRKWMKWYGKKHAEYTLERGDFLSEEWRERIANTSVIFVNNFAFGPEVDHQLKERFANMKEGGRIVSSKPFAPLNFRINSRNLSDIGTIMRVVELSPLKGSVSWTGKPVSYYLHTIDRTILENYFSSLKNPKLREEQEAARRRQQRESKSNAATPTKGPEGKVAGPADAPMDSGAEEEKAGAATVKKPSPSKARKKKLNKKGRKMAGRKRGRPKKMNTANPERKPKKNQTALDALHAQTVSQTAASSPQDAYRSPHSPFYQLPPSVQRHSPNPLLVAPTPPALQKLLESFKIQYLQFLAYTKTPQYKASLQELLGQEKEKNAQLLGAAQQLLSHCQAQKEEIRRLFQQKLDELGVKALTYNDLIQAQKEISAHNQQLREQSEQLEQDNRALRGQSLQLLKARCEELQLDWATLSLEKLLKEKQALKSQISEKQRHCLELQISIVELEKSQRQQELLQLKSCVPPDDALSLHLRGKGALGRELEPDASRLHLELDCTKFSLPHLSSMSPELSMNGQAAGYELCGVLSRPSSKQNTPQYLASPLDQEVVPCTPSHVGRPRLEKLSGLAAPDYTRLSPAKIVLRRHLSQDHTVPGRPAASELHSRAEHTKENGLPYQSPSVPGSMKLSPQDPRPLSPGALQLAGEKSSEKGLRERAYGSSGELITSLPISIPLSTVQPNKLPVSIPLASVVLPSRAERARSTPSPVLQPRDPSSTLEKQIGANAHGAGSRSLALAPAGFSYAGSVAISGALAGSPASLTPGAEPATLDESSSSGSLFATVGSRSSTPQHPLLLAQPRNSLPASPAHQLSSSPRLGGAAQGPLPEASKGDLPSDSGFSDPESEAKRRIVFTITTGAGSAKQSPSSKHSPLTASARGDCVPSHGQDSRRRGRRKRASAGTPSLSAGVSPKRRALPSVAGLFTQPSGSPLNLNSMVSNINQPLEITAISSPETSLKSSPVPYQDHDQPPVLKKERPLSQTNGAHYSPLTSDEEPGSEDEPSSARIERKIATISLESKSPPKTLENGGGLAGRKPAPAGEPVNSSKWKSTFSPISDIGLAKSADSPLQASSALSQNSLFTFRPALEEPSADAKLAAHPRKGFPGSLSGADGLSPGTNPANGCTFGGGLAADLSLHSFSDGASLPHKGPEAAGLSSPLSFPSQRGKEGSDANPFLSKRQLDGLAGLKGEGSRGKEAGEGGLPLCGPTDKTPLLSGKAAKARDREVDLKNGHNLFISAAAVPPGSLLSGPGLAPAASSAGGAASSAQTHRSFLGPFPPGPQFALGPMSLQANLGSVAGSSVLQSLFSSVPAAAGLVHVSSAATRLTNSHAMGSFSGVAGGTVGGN

[3] = target: Histone-lysine N-methyltransferase EZH2 (Homo sapiens) (UniProt Q15910); assay: Inhibition of EZH2 (unknown origin) using [methyl-3H]SAM and biotinylated nucleosome PRC2 and H3K27Me3 activator peptide up to 80 uM by [3H]methyl group incorporation assay
Chain of Histone-lysine N-methyltransferase EZH2 (Homo sapiens) (Q15910 whole entry, looked up): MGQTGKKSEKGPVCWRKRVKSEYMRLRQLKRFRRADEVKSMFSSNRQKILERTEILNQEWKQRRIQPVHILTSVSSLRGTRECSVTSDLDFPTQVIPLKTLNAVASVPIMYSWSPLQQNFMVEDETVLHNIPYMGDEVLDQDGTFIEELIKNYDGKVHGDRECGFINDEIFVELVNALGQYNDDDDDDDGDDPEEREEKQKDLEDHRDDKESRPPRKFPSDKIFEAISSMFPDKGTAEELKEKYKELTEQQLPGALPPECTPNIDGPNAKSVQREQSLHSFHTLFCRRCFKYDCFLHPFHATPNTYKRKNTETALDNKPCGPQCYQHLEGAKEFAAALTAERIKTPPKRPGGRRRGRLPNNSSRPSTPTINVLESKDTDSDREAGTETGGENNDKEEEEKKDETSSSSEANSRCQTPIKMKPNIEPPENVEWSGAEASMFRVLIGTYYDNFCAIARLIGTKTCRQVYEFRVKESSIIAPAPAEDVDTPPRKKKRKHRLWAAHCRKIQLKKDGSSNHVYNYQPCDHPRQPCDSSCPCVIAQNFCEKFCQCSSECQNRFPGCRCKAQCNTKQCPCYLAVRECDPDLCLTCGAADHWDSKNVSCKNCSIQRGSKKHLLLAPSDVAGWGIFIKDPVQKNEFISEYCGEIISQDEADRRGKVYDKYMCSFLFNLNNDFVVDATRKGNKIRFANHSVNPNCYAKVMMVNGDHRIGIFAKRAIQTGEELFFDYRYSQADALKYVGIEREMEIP

[4] = tested on: MDA-MB-231; assay: Toxicity against human MDA-MB-231 cells; assay type: cell-based
[5] = target: T1, DNA (cytosine-5)-methyltransferase 3A (Homo sapiens, UniProt Q9Y6K1); assay: Inhibition of human DNMT3A catalytic domain (623 to 912 amino acids) at 100 uM after 1 hr by fluorescence assay
T1 sequence (Q9Y6K1 whole entry, looked up, the tested form may be a part): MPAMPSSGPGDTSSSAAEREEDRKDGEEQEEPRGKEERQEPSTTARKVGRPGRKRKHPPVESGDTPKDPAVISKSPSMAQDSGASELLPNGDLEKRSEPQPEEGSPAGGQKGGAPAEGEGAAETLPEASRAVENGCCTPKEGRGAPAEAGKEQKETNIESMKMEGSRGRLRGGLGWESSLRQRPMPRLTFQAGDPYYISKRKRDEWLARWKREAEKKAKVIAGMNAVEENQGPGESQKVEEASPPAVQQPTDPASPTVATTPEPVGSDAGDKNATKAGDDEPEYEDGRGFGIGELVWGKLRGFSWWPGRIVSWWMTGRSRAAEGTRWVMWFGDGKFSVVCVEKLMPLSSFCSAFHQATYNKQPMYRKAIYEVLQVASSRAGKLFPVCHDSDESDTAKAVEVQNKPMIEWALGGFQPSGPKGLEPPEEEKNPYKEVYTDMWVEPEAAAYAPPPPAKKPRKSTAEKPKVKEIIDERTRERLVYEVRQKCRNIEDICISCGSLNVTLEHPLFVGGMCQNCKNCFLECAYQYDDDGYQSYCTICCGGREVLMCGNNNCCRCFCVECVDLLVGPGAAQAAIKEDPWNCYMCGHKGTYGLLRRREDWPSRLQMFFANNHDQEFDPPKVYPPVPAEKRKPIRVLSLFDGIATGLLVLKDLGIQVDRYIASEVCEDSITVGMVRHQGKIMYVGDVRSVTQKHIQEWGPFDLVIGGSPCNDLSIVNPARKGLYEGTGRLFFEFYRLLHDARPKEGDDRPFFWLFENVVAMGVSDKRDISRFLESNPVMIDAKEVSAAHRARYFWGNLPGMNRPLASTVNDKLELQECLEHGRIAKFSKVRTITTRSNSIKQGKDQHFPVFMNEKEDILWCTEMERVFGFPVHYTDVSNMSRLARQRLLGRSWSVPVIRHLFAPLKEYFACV

[6] = target: T1, DNA (cytosine-5)-methyltransferase 3A; assay: Inhibition of human DNMT3A catalytic domain (623 to 912 amino acids) at 10 uM after 1 hr by fluorescence assay
[7] = tested on: MDA-MB-231; assay: Inhibition of DNMT in human MDA-MB-231 cells assessed as reduction in methylation level at 200 uM by luminometric methylation assay; assay type: cell-based
[8] = tested on: MDA-MB-231; assay: Inhibition of DNMT in human MDA-MB-231 cells assessed as reduction in methylation level at 100 uM by luminometric methylation assay; assay type: cell-based
[9] = target: DNA (cytosine-5)-methyltransferase 1 (Homo sapiens) (UniProt P26358); assay: Inhibition of human DNMT1 using [methyl-3H]SAM and biotinylated hemimethylated DNA duplex at 50 to 200 uM by [3H]methyl group incorporation assay
[10] = target: T1, DNA (cytosine-5)-methyltransferase 3A; assay: Inhibition of human DNMT3A catalytic domain (623 to 912 amino acids) after 1 hr by fluorescence assay
[11] = tested on: MDA-MB-231; assay: Inhibition of DNMT in human MDA-MB-231 cells assessed as reduction in methylation level at 1 uM by luminometric methylation assay; assay type: cell-based

| inhibition [1] [%] | inhibition [2] | inhibition [3] | SMILES | further results |
| --- | --- | --- | --- | --- |
| < 20 | inactive | inactive | CCc1ccc(CCNC(=O)c2cc(Cl)ccc2OC)cc1 |  |
| < 20 | inactive | inactive | COc1ccc(Cl)cc1C(=O)NCCc1ccc(C(C)CC(=O)O)cc1 (stereo not drawn) |  |
| < 20 | inactive | inactive | COc1ccc(Cl)cc1C(=O)NCCc1ccc(CCCO)cc1 |  |
| < 20 | inactive | inactive | COc1ccc(Cl)cc1C(=O)NCCc1ccc(C(=O)O)cc1 |  |
| < 20 | inactive | inactive | O=C(O)CCc1ccc(CCNC(=O)c2cc(Cl)ccc2F)cc1 |  |
| 2.9 | inactive | inactive | COc1ccc(Cl)cc1C(=O)NCCc1ccc(CCC(=O)O)cc1 | inhibition [5]: inactive; inhibition [6]: inactive; inhibition [9]: inactive |
| < 20 | inactive | inactive | CNC(=O)CCc1ccc(CCNC(=O)c2cc(Cl)ccc2OC)cc1 |  |
| < 20 | inactive | inactive | COc1ccc(Cl)cc1C(=O)NCCc1ccc(CC(=O)O)cc1 |  |
| < 20 | inactive | inactive | COc1ccc(Cl)cc1C(=O)NCCc1ccc(CCC(=O)N(C)C)cc1 |  |
| < 20 | inactive | inactive | COc1ccc(Cl)cc1C(=O)N(C)CCc1ccc(CCC(=O)O)cc1 |  |
| < 20 | inactive | inactive | COc1ccc(Cl)cc1C(=O)NCCc1cccc(CCC(=O)O)c1 |  |
| 15 | inactive | inactive | COc1ccc(Cl)cc1C(=O)NCCc1ccc(OCC(=O)O)cc1 | Activity [4]: Non-toxic; inhibition [7]: inactive; inhibition [5]: > 60%; inhibition [6]: > 13%; inhibition [8]: inactive |
| < 20 | inactive | inactive | COc1ccc(Cl)cc1C(=O)NCc1ccc(CCC(=O)O)cc1 | inhibition [5]: > 60%; inhibition [6]: > 13% |
| < 20 | inactive | inactive | COc1ccc(Cl)cc1C(=O)Nc1ccc(CCC(=O)O)cc1 | inhibition [5]: > 60%; inhibition [6]: > 13% |
| < 20 | inactive | inactive | COc1ccc(Cl)cc1C(=O)NCCc1ccc(CC(C)C(=O)O)cc1 (stereo not drawn) |  |
| 16 | inactive | inactive | COc1ccc(Cl)cc1C(=O)NCCc1ccc(O)cc1 | Activity [4]: Toxic; inhibition [5]: > 60%; inhibition [6]: > 13%; EC50 [10]: 36 µM |
| < 20 | inactive | inactive | COc1ccc(Cl)cc1C(=O)NCCc1ccc(CCC(N)=O)cc1 |  |
| < 20 | inactive | inactive | COc1ccc(Cl)cc1C(=O)NCCc1ccc(/C=C/C(=O)O)cc1 |  |

The remaining lines, values behind:

| SMILES | inhibition [1] [%] | inhibition [2] | inhibition [3] | further results |
| --- | --- | --- | --- | --- |
| O=C(O)CCc1ccc(CCNC(=O)c2cccc(Cl)c2)cc1 | < 20 | inactive | inactive |  |
| COc1ccc(Cl)cc1C(=O)NCCc1ccc(CCC(=O)N2CCOCC2)cc1 | < 20 | inactive | inactive |  |
| COc1cccc(C(=O)NCCc2ccc(CCC(=O)O)cc2)c1 | < 20 | inactive | inactive |  |
| COc1ccc(Cl)cc1C(=O)NCCc1ccccc1 | < 20 | inactive | inactive |  |
| O=C(O)CCc1ccc(CCNC(=O)c2ccc([N+](=O)[O-])cc2)cc1 | 14 | inactive | inactive | Activity [4]: Toxic; inhibition [5]: > 60%; inhibition [6]: > 13% |
| COc1ccc(Cl)cc1C(=O)N[C@@H](Cc1ccc(OCC(=O)O)cc1)C(=O)O | < 20 | inactive | inactive | Activity [4]: Non-toxic; inhibition [7]: Active; inhibition [5]: > 60%; inhibition [6]: > 13%; inhibition [8]: inactive |
| O=C(O)CCc1ccc(CCNC(=O)c2cc(C(F)(F)F)ccc2Cl)cc1 | < 20 | inactive | inactive | Activity [4]: Toxic; inhibition [5]: > 60%; inhibition [6]: inactive |
| O=C(O)CCc1ccc(CCNC(=O)c2ccccc2Br)cc1 | < 20 | inactive | inactive |  |
| O=C(O)CCc1ccc(CCNC(=O)c2cccnc2)cc1 | < 20 | inactive | inactive |  |
| COc1ccc(Cl)cc1CNCCc1ccc(CCC(=O)O)cc1 | < 20 | inactive | inactive |  |
| COc1ccc(Cl)cc1NC(=O)CCc1ccc(CCC(=O)O)cc1 | < 20 | inactive | inactive |  |
| O=C(O)CCc1ccc(CCNC(=O)c2ccccc2F)cc1 | < 20 | inactive | inactive |  |
| Nc1ncn([C@@H]2O[C@H](CO)[C@@H](O)[C@H]2O)c(=O)n1 |  |  |  | inhibition [11]: Active |
